Structures are written as SMILES. Read-outs that look alike come from different tables or passages of the source.

Experiment [1] has as its target T1, PYCR3 (Homo sapiens, UniProt Q53H96).
T1 sequence (Q53H96 11-274): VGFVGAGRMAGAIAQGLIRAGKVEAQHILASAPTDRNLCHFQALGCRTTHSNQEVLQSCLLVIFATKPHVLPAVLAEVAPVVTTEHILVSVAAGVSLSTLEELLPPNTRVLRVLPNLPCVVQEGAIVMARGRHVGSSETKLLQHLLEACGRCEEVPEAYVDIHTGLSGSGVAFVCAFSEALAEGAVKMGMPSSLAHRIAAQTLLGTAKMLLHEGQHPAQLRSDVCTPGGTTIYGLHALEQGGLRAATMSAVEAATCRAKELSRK
Put plainly: Single-point inhibition screen of proline analogs against PYCR3. The settings on record: proline analog 5 mM, L-P5C 200 μM, NADH 175 μM. It is filed as biochemical.

Experiment [2] has as its target T1, PYCR3. Put plainly: Competitive. Conditions: pH 7.5, 26°C, NADH fixed at 175 μM. It is filed as biochemical.
For experiment [3], the target named is PYCR1. The settings on record: read-out: Ki against PYCR1; cited from earlier work.
Experiment [4] addresses PYCR3. The settings on record: read-out: Ki of L-proline against PYCR3, previous estimate; cited from earlier work.
Experiment [5] concerns the target T1, PYCR3. Put plainly: Steady-state. The class given is biochemical. Conditions: pH 7.5, 26°C.
Experiment [6] addresses T1, PYCR3. Put plainly: Bi-substrate kinetic analysis of PYCR3, global fitting to bi bi models. Conditions: read-out: K^P5C, L-P5C on abscissa, L-P5C binds first, pH 7.5, 26°C. It is filed as biochemical.
For experiment [7], the system named is PYCR1. Conditions: PYCR1, variable L-P5C, NADH = 175 μM; cited from earlier work.
[8] abbreviates: PYCR3, variable L-P5C, NADH = 175 μM.
Setting [9] is: PYCR3, variable L-P5C, NADPH = 175 μM.
Where [10] appears, read: PYCR3, variable coenzyme, L-P5C = 400 μM.

On to `O=CN1CCC[C@H]1C(=O)O` [Compound 2, N-formyl-L-proline], for which the “catalytic activity compared to the control assay with no inhibitor” value in experiment [1] is recorded as no more than 50%. The Ki in experiment [2] (read-out: Ki, apparent competitive (with L-P5C) inhibition constant) is 1200 ± 100 µM; in experiment [3], 100 µM.

Consider `O=C(O)[C@@H]1CCCN1` [Compound 17, L-proline], for which the Ki in experiment [2] (Ki, apparent competitive (with L-P5C) inhibition constant) was 5700 ± 600 µM; in experiment [4], roughly 8000 µM.

In the case of `O=C(O)C1CCC=N1` [L-P5C, Δ^1-pyrroline-5-carboxylate], the Km (usually the concentration of substrate that gives half-maximal velocity) is 315 ± 65 µM in experiment [5] (setting [8]), 64 ± 48 µM in experiment [5] (setting [9]) and 260 ± 63 µM in experiment [7]. For the same compound, the catalytic constant (kcat) (usually the number of substrate molecules converted per active site and unit of time at saturation) in experiment [5] (setting [8]) is 146 ± 17 s⁻¹; in experiment [5] (setting [9]), 48 ± 11 s⁻¹; in experiment [7], 51 ± 13 s⁻¹. Further, the Kd in experiment [6] (equilibrium compulsory ordered bi bi (Equation 2)) came to 1500 ± 700 µM; in experiment [6] (steady-state compulsory ordered bi bi (Equation 3)), 110 ± 70 µM.

`NC(=O)C1=CN([C@@H]2O[C@H](COP(=O)(O)OP(=O)(O)OC[C@H]3O[C@@H](n4cnc5c(N)ncnc54)[C@H](O)[C@@H]3O)[C@@H](O)[C@H]2O)C=CC1` [NADH]: in experiment [5] (setting [10]), the Km was found to be 192 ± 8 µM and the turnover number (kcat) amounted to 235 ± 5 s⁻¹.

For the compound `NC(=O)C1=CN([C@@H]2O[C@H](COP(=O)(O)OP(=O)(O)OC[C@H]3O[C@@H](n4cnc5c(N)ncnc54)[C@H](OP(=O)(O)O)[C@@H]3O)[C@@H](O)[C@H]2O)C=CC1` [NADPH], in experiment [5] (setting [10]), the Km was found to be 45 ± 3 µM and the kcat turned out to be 70 ± 2 s⁻¹.
